Assay results as given in patent US10183914B2 (BAYER CROPSCIENCE AKTIENGESELLSCHAFT, priority 2014, dated 2019).

Legend:
Oryza sativa [1] = experiment: Pre-emergence herbicidal effect and crop plant compatibility; type: in vivo; details: 3 weeks
Summary of the method: (§1)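 Pre-emergence soil-surface application: WP or EC formulations in water (600 to 800 L/ha, 0.2% wetting agent) onto covered seeds in sandy loam. Plants kept under good greenhouse conditions. Damage rated visually at 3 weeks, 0% = control, 100% = dead.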

Zea mays [2] = experiment: as above; type: in vivo; details: 3 weeks
Summary of the method: as §1

[3] = test system: Triticum aestivum (spring); experiment: as above; type: in vivo; details: 3 weeks
Summary of the method: as §1

Polygonum convolvulus = experiment: Pre-emergence herbicidal effect; type: in vivo; details: 320 g/ha, 3 weeks
Summary of the method: as §1

Echinochloa crus-galli = experiment: Pre-emergence herbicidal effect; type: in vivo; details: 320 g/ha, 3 weeks
Summary of the method: as §1

Matricaria inodora = experiment: Pre-emergence herbicidal effect; type: in vivo; details: 320 g/ha, 3 weeks
Summary of the method: as §1

Stellaria media = experiment: Pre-emergence herbicidal effect; type: in vivo; details: 320 g/ha, 3 weeks
Summary of the method: as §1

Viola tricolor = experiment: Pre-emergence herbicidal effect; type: in vivo; details: 3 weeks
Summary of the method: as §1

Veronica persica = experiment: Pre-emergence herbicidal effect; type: in vivo; details: 3 weeks
Summary of the method: as §1

Setaria viridis = experiment: Pre-emergence herbicidal effect; type: in vivo; details: 320 g/ha, 3 weeks
Summary of the method: as §1

Amaranthus retroflexus = experiment: Pre-emergence herbicidal effect; type: in vivo; details: 320 g/ha, 3 weeks
Summary of the method: as §1

Abutilon theophrasti = experiment: Pre-emergence herbicidal effect; type: in vivo; details: 320 g/ha, 3 weeks
Summary of the method: as §1

Lolium multiflorum = experiment: Pre-emergence herbicidal effect; type: in vivo; details: 320 g/ha, 3 weeks
Summary of the method: as §1

[4] = logp (HCOOH), physicochemical characterization
Oryza sativa [5] = experiment: Post-emergence herbicidal effect and crop plant compatibility; type: in vivo; details: visual scoring after about 3 weeks
Summary of the method: (§2)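 Foliar treatment: wettable powder or emulsion concentrate diluted in water, 600 to 800 L/ha, with 0.2% wetting agent, sprayed at one leaf. Readout: percent damage judged visually after ~3 wk in greenhouse, relative to untreated plants.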

Zea mays [6] = experiment: as above; type: in vivo; details: visual scoring after about 3 weeks
Summary of the method: as §2

[7] = test system: Triticum aestivum (spring); experiment: as above; type: in vivo; details: visual scoring after about 3 weeks
Summary of the method: as §2

Brassica napus = experiment: as above; type: in vivo; details: 80 g/ha, visual scoring after about 3 weeks
Summary of the method: as §2

In the case of `Cc1ccc2c(c1)[C@H](Nc1ncc3c(n1)CC(c1ccc(F)cc1)CC3=O)[C@@H](C)C2` (some centres unmarked) [2.52], the “ORYSA herbicidal activity in percent” value (Oryza sativa [1]; 80 g/ha) is reported as 0%, the “ORYSA herbicidal activity in percent” value (Oryza sativa [1]; 320 g/ha) is reported as 20% and the “ZEAMX herbicidal activity in percent” value (Zea mays [2]; 80 g/ha) is reported as 0%. For the same compound, the “ZEAMX herbicidal activity in percent” value (Zea mays [2]; 320 g/ha) was 10%, the “TRZAS herbicidal activity in percent” value ([3]; 80 g/ha) was 0% and the “TRZAS herbicidal activity in percent” value ([3]; 320 g/ha) was 30%. For the same compound, the “POLCO herbicidal activity in percent” value (Polygonum convolvulus) was 60%, the “ECHCG herbicidal activity in percent” value (Echinochloa crus-galli) was 100% and the “MATIN herbicidal activity in percent” value (Matricaria inodora) was 100%. For the same compound, the “STEME herbicidal activity in percent” value (Stellaria media) was 100%, the “VIOTR herbicidal activity in percent” value (Viola tricolor; 80 g/ha) was 100% and the “VIOTR herbicidal activity in percent” value (Viola tricolor; 320 g/ha) was 100%. The “VERPE herbicidal activity in percent” value (Veronica persica; 80 g/ha) was 90%, the “VERPE herbicidal activity in percent” value (Veronica persica; 320 g/ha) was 100% and the “SETVI herbicidal activity in percent” value (Setaria viridis) was 70%. The “AMARE herbicidal activity in percent” value (Amaranthus retroflexus) was 100%, the “ABUTH herbicidal activity in percent” value (Abutilon theophrasti) was 0% and the “LOLMU herbicidal activity in percent” value (Lolium multiflorum) was 90%. The “logp (HCOOH)” value [4] was “oily; logp (HCOOH): 4.87; 1H-NMR (CDCl3, 400 MHZ, δ in ppm): 1.25 (t, 3H, CH3);”, the “post-emergence efficacy ORYSA” value (Oryza sativa [5]; 80 g/ha) was 0% and the “post-emergence efficacy ORYSA” value (Oryza sativa [5]; 320 g/ha) was 0%. For the same compound, the “post-emergence efficacy ZEAMX” value (Zea mays [6]; 80 g/ha) was 0%, the “post-emergence efficacy ZEAMX” value (Zea mays [6]; 320 g/ha) was 0% and the “post-emergence efficacy TRZAS” value ([7]; 80 g/ha) was 0%. For the same compound, the “post-emergence efficacy TRZAS” value ([7]; 320 g/ha) was 0% and the “post-emergence efficacy BRSNW” value (Brassica napus) was 20%.
